Among the data in PubChem BioAssay (NCI) are TGI values, retold here.

Among the test systems are MDA-MB-435; K-562 leukemia; SR leukemia; BT-549 breast; OVCAR-5 ovarian; DU-145 prostate; RXF 393 renal; MDA-N; NCI-H23 lung; RPMI-8226 leukemia.
Test in all cases: NCI anticancer screen, dose series, 48 h

The structures appear in SMILES notation.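 The compound was tested at five concentrations on cells cultured in 96-well plates, with a 48-hour exposure period. The concentration for full growth arrest is given as TGI.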

Take `Nc1nc(Cl)cc(Oc2ccc(Cl)cc2)n1`: the TGI with MDA-MB-435, in the assay with K-562 leukemia, in the assay on SR leukemia, with BT-549 breast, with OVCAR-5 ovarian and with DU-145 prostate was over 100 µM throughout. Also, the TGI with RXF 393 renal, with MDA-N, in the assay with NCI-H23 lung and in the assay with RPMI-8226 leukemia was over 100 µM in each case.

For the compound `O=[N+]([O-])c1cc(-c2ccc([As](=O)(O)O)cc2)ccc1[As](=O)(O)O`, the TGI in the assay with MDA-MB-435, with K-562 leukemia, with SR leukemia, in the assay with BT-549 breast, in the assay on OVCAR-5 ovarian and with DU-145 prostate was over 100 µM in each case. The TGI with RXF 393 renal, in the assay on MDA-N, with NCI-H23 lung and in the assay with RPMI-8226 leukemia was over 100 µM throughout.

For the compound `CN1CN(c2ccccc2)C2(CCN(C(=O)OC(C)(C)C)CC2)C1=O`, the TGI with MDA-MB-435, in the assay on K-562 leukemia, in the assay on SR leukemia, with BT-549 breast, with OVCAR-5 ovarian and in the assay on DU-145 prostate was over 100 µM each time. Further, the TGI with RXF 393 renal, in the assay on MDA-N, in the assay on NCI-H23 lung and with RPMI-8226 leukemia was over 100 µM in each case.

With `COc1cc(/C=[N+](\[O-])c2ccccc2Cl)ccc1OC(=S)S`, the TGI in the assay on MDA-MB-435 is 57.7 µM; in the assay on K-562 leukemia, over 100 µM; with SR leukemia it was over 100 µM; in the assay on BT-549 breast it was 68.3 µM; in the assay on OVCAR-5 ovarian, over 100 µM; with DU-145 prostate, over 100 µM. Further, the TGI in the assay with RXF 393 renal was 89.3 µM; in the assay on MDA-N it was over 100 µM; in the assay on NCI-H23 lung, over 100 µM; in the assay with RPMI-8226 leukemia, over 100 µM.

As for `O=C1/C(=C/Cc2ccco2)N=C(c2ccccc2)N1c1nc2ccc(Sc3ccccc3)cc2[nH]1`, the TGI is 23.5 µM in the assay on MDA-MB-435; over 100 µM in the assay with K-562 leukemia; 54.6 µM in the assay with SR leukemia; 57.7 µM in the assay with BT-549 breast; 96.9 µM in the assay with OVCAR-5 ovarian; 70.5 µM with DU-145 prostate. Further, the TGI was 36.1 µM in the assay with RXF 393 renal, 25 µM with MDA-N and over 100 µM in the assay on RPMI-8226 leukemia.

Regarding `CN1C(=O)c2c(c3c4ccccc4n(C)c3c3c2c2ccccc2n3C)C1=O`, the TGI with MDA-MB-435, in the assay with K-562 leukemia, in the assay on SR leukemia, in the assay with BT-549 breast, in the assay with OVCAR-5 ovarian and in the assay on DU-145 prostate was over 100 µM each time. Besides, the TGI in the assay with MDA-N, with NCI-H23 lung and in the assay with RPMI-8226 leukemia was over 100 µM throughout.

Regarding `COc1ccc2nc3c(nc2c1)C(C)(C)C=C3c1ccc(Br)cc1`, the TGI in the assay with MDA-MB-435, with SR leukemia, in the assay with BT-549 breast, in the assay with OVCAR-5 ovarian, in the assay with DU-145 prostate and with RXF 393 renal was over 100 µM in each case. Moreover, the TGI in the assay on MDA-N and with RPMI-8226 leukemia was over 100 µM throughout.

Take `OC[C@H](O)[C@@H](OCc1ccccc1)[C@H](NCc1ccccc1)c1cccs1`: the TGI in the assay with MDA-MB-435, in the assay with K-562 leukemia, with SR leukemia, in the assay on BT-549 breast, with OVCAR-5 ovarian and with DU-145 prostate was over 100 µM throughout. Moreover, the TGI with MDA-N, in the assay with NCI-H23 lung and in the assay with RPMI-8226 leukemia was over 100 µM each time.

For `CCCCCCCCC/C=C1/CC(CO)(COC(=O)C2CCCCC2)OC1=O` (centres undefined), the TGI in the assay on MDA-MB-435, in the assay on K-562 leukemia, with SR leukemia, with BT-549 breast, with OVCAR-5 ovarian and with DU-145 prostate was over 100 µM each time. In addition, the TGI with RXF 393 renal, in the assay with MDA-N and with NCI-H23 lung was over 100 µM each time.

Take `OC[C@@H](O)[C@H](O)[C@H](O)[C@@H](O)C1SCCCS1`: the TGI with MDA-MB-435, in the assay on SR leukemia, in the assay on BT-549 breast, with OVCAR-5 ovarian, in the assay with DU-145 prostate and with RXF 393 renal was over 100 µM throughout. The TGI in the assay on MDA-N, in the assay with NCI-H23 lung and with RPMI-8226 leukemia was over 100 µM each time.

For the compound `O=C(O)Cn1cnc2c(=O)[nH]c(Nc3ccccc3)nc21`, the TGI in the assay on MDA-MB-435, with SR leukemia, in the assay with BT-549 breast, with OVCAR-5 ovarian, in the assay with DU-145 prostate and in the assay with MDA-N was over 100 µM in each case. In addition, the TGI with NCI-H23 lung and with RPMI-8226 leukemia was over 100 µM in each case.

For `COC(=O)[C@@]1(Cc2ccc(OC(C)=O)cc2)Cc2cc3ccccc3n2N1`, the TGI in the assay on MDA-MB-435 is over 100 µM; in the assay with SR leukemia, 70.6 µM; with BT-549 breast, over 100 µM; with OVCAR-5 ovarian, over 100 µM; in the assay on DU-145 prostate, over 100 µM; with MDA-N it was 77.6 µM. Also, the TGI in the assay on NCI-H23 lung and in the assay on RPMI-8226 leukemia was over 100 µM in each case.
